# US20200393447A1, “BIOSENSORS FOR MEASURING CELL SIGNALING IN STRESSED AND HEALTHY CELLS” (MONTANA MOLECULAR LLC, priority 2017, published 2020)
# What was measured:
# Type in all cases: cell-based
# [1] = tested on: iPSC-derived peripheral neurons; assay: Two-color stress sensor (SEQ ID NO: 6): percentage of ER-stressed cells after chemotherapeutic treatment; conditions: 24 hours of incubation
# Description: The two-color biosensor described in Example 5 above (RFP-GFP stress sensor; SEQ ID NO: 6) may be used to calculate the percent of cells undergoing ER stress, and may be used as measurement technique to detect side effects induced by chemotherapeutics. In order to determine the percentage of cells in population experiencing ER-stress following exposure to a ER-stress-inducing compound, iPSC-derived peripheral neurons were transduced with the two-color stress sensor described in Example 5 above. The cells were treated with the chemotherapeutic vincristine at concentrations of 0.0001 μM, 0.01 μM, and 0.1 μM. Measurement of the red fluorescence was used to identify transduced cells and measurement of green fluorescence identifies stressed cells. Stressed and unstressed cells were counted to quantify the percentage of stressed cells in the population.
# Peri.4U peripheral neurons from Ncardia were plated onto 96-well plates according to the manufacturer's instructions. Cells were incubated for 2 days at 37° C. and 5% CO2 and the media was changed every 24 hours, using Ncardia neuro supplement media. […] Those cells that expressed both the constitutively expressed red nuclear marker and the green, stress induced, nuclear fluorescence were considered stressed, while those only expressing the red marker were considered unstressed. […]
# HEK293T cells [2] = assay: RT-PCR of spliced/unspliced sensor mRNA (XBP1 intron splicing) after thapsigargin
# Description: A second nucleic acid construct (SEQ ID NO: 6) was constructed and tested. This nucleic acid construct is a red fluorescent protein (RFP) with a nuclear localization sequence, placed upstream of the XBP1 intron sequence. A T2A peptide encoding sequence is placed after the RFP sequence. This is followed by a partial sequence from the endogenous XBP1 gene that encodes a region of the protein important for regulating its stability. This partial XBP1 sequence is fused to the mNeonGreen coding sequence. Upon stress activation the XBP1 intron sequence is removed, this removes a stop codon, shifts the reading frame, and allows for translation of the XBP1-mNeonGreen fusion construct. This construct was transfected into HEK293T cells, which were then treated with 1 μM thapsigargin or DMSO vehicle control to induce ER stress. Isolated mRNA from the treated cells was then analyzed for intron splicing using RT-PCR (see van Schadewijk et al., 2012).
# (§1) HEK293T cells were transduced with 25 μL of the nucleic acid construct of SEQ ID NO: 6. The construct was transduced into 48,000 HEK293T cell in FluoroBrite media and the cells were incubated at 37° C. and 5% CO2 for 16 hours. A final concentration of 1 μM thapsigargin was added to the cells. For RT-PCR analysis a total of 2 μg of total RNA was isolated form 6 wells of cells grown on 96-well Greiner plates coated in poly-D-lysine. […] PCR products were then analyzed on a 2% agarose gel. […] All images were obtained using a Zeiss Axiovert fluorescence microscope with standard RFP and GFP excitation and emission filter sets. […] The media was supplemented with 25 mM HEPES and the cells were incubated in the BioTek Synergy MX plate reader at 37° C. for 24 hours. Green fluorescence was monitored using excitation and emission wavelengths of 485 nm and 528 nm respectively, while red fluorescence was monitored using 558 nm/603 nm excitation and emission wavelengths. […] The percentage of change in green, red, and green/red ratio fluorescence was then calculated.
# HEK293T cells [3] = assay: Multiplex Ca2+ biosensor (SEQ ID NO: 4) in cells stressed with thapsigargin, carbachol stimulation
# Protocol: In order to analyze the calcium response of cells exposed to an ER-stress inducing molecule, HEK293T cells transfected with the nucleic acid construct described in FIG. 1 were exposed to thapsigargin to induce ER stress. Thapsigargin is an inhibitor of the sarcoplasmic/endoplasmic reticulum Ca^2+ ATPase that inhibits the autophagic process and induces ER stress. The calcium signaling properties of the thapsigargin-treated cells was measured as described below. HEK293T cells were transfected with SEQ ID NO: 4 as follows. 27,000 cells per well in 100 μL of EMEM media were plated onto Greiner 96-well plates coated with poly-D lysine. The cells were incubated for 24 hours at 37° C. and 5% CO2. 100 ng of plasmid DNA expressing SEQ ID NO: 4 and 10 ng of plasmid expressing human muscarinic receptor 1 were then transfected using FUGENE as follows. 100 ng of DNA expressing SEQ ID NO: 4 and 10 ng of DNA expressing human muscarinic receptor 1 were combined with 0.4 μL of FUGENE and brought to a final volume of 50 μL using OPTIMEM serum free media and incubated for 20 mins at 25° C. then added to the cells. After 16 hours the cells were treated with a final concentration of 1 μM thapsigargin for 5 hours to induce ER stress. The cells were then washed 5× with 100 μL DPBS and 150 μL of DPBS was added to the wells. The cells were imaged using a Zeiss Axiovert fluorescence microscope using standard Green Fluorescent Protein (GFP) and Red Fluorescent Protein (RFP) excitation and emission filters. Images were obtained in both the red and green channels every 2 seconds for 100 seconds. A final concentration of 50 μM carbachol was added to the wells to stimulate Gq signaling after 20 seconds, releasing intracellular Ca^2+ stores for detection by the biosensor. The images were analyzed as follows. Cells were identified as either stressed or unstressed based on their green fluorescence intensity. The Ca^2+ signaling response upon Gq stimulation was monitored in the red fluorescence channel.
# HEK293T cells [4] = assay: Two-color stress sensor fluorescence monitored over 24 hours after thapsigargin; conditions: 1 μM vs DMSO, 24 hours monitoring
# Protocol: as §1, with “poly-D-lysine. RNA was isolated using the Zymo Quick RNA microprep kit according to the manufacturer's instructions. mRNA was converted to cDNA by reverse transcription using M-MLV reverse transcriptase from Promega and an oligo dT primer according to the manufacturer's instructions.” for “poly-D-lysine.”
# HEK293T cells [5] = assay: Multiplex Ca2+ biosensor (SEQ ID NO: 4) in cells stressed by P23H rhodopsin mutant, carbachol stimulation; conditions: 50 μM, P23H rhodopsin mutant co-expressed
# Protocol: In order to analyze the calcium response of cells expressing a mutant protein, HEK293T cells were transfected with both the nucleic acid construct described in FIG. 1 and a mutant rhodopsin protein (P23H). The P23H mutation in rhodopsin causes retinitis pigmentosa (Rivolta et al. 2002), an inherited form of blindness that develops gradually over the first decade of life.
# The experiment in FIG. 4 was conducted the same as in FIG. 3 with the following modifications. 100 ng of a plasmid expressing the P23H rhodopsin mutation was co-transfected with the plasmid expressing SEQ ID NO: 4 and 10 ng of human muscarinic receptor 1. After 24 hours the cells were treated with 50 μM carbachol as described in Example 1 above, and the Ca^2+ signaling was monitored in the red fluorescence channel for cells identified as stressed or unstressed based on their green fluorescence intensity.
structure (smiles),measurement,setting,value
CC[C@]1(O)C[C@H]2CN(CCc3c([nH]c4ccccc34)[C@@](C(=O)OC)(c3cc4c(cc3OC)N(C=O)[C@H]3[C@@](O)(C(=O)OC)[C@H](OC(C)=O)[C@]5(CC)C=CCN6CC[C@]43[C@@H]65)C2)C1 [vincristine],percentage of stressed cells compared to control treatment,"[1]; 0.01 μM, p<0.00011",statistically significant percentages of stressed cells
same,percentage of stressed cells compared to control treatment,"[1]; 0.1 μM, p<2.3e−05",statistically significant percentages of stressed cells
C/C=C(/C)C(=O)O[C@H]1C(C)=C2[C@H]([C@@H]1OC(=O)CCCCCCC)[C@@](C)(OC(C)=O)C[C@H](OC(=O)CCC)[C@@]1(O)[C@H]2OC(=O)[C@@]1(C)O [thapsigargin],persistence of spliced sensor band (recovery from stress),HEK293T cells [2]; 1 μM,disappears after 24 hours
same,time of peak intensity of spliced sensor band post-treatment,HEK293T cells [2]; 1 μM,2.5 h
same,appearance of spliced version of the sensor (lower band),"HEK293T cells [2]; 1 μM vs DMSO, 30 minutes, 2.5, 6 and 24 hours",appears only in the thapsigargin treated cells
same,mNeonGreen expression (ER stress marker),HEK293T cells [3]; 1 μM for 5 hours,the mNeonGreen protein due to the ER stress induced by the thapsigargin treatment
same,green stress induced fluorescence over time,HEK293T cells [4],"appears rapidly, then disappears by 24 hours"
C[N+](C)(C)CCOC(N)=O [carbachol],Ca2+ response in ER-stressed cells compared to surrounding healthy cells,"HEK293T cells [3]; 50 μM, stressed (mNeonGreen) vs unstressed cell","blunted, smaller amplitude response"
same,red fluorescence of Ca2+ biosensor after treatment,"HEK293T cells [3]; 50 μM, thapsigargin-treated cells",visible increase in red fluorescence
same,"release of intracellular Ca2+ stores, stressed vs unstressed cells",HEK293T cells [5],blunted in the stressed cells compared to the unstressed cells
